According to ChEMBL document CHEMBL5131517 (ACS Med Chem Lett, 2022):

Assays:
Format in all cases: functional, cell-based
[1] = molecular target: T1, 5-hydroxytryptamine receptor 2A (Homo sapiens, UniProt P28223); experiment: Agonist activity at human 5HT2A receptor stably expressed in Flp-In-T-REx-293 cells assessed as increase in Gq-mediated calcium flux by Fluo-4 direct dye based FLIPR Tetra assay
[2] = molecular target: T2, 5-hydroxytryptamine receptor 2C (Homo sapiens) (UniProt P28335); experiment: Agonist activity at human 5HT2C receptor stably expressed in Flp-In-T-REx-293 cells assessed as maximal Gq-mediated calcium flux by Fluo-4 direct dye based FLIPR Tetra assay relative to control
T2 sequence (whole entry): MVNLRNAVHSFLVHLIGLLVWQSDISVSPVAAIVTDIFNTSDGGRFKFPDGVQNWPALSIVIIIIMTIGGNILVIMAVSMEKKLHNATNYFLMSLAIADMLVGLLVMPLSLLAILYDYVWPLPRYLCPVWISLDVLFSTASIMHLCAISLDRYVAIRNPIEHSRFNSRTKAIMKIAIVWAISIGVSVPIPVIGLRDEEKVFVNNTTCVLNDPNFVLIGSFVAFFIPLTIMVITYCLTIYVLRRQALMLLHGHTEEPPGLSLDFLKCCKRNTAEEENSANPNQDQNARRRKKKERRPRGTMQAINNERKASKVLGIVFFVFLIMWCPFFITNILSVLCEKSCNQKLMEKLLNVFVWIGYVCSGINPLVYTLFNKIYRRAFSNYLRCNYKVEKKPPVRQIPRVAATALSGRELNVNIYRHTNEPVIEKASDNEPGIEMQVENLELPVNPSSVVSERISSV

[3] = molecular target: T1, 5-hydroxytryptamine receptor 2A; experiment: Agonist activity at human 5HT2A receptor stably expressed in Flp-In-T-REx-293 cells assessed as maximal Gq-mediated calcium flux by Fluo-4 direct dye based FLIPR Tetra assay relative to control
[4] = molecular target: T3, 5-hydroxytryptamine receptor 2C (Homo sapiens, UniProt P28335); experiment: Agonist activity at human 5HT2C receptor stably expressed in Flp-In-T-REx-293 cells assessed as increase in Gq-mediated calcium flux by Fluo-4 direct dye based FLIPR Tetra assay
T3 sequence (P28335 whole entry): T2 sequence (whole entry)

T1 sequence (P28223 whole entry): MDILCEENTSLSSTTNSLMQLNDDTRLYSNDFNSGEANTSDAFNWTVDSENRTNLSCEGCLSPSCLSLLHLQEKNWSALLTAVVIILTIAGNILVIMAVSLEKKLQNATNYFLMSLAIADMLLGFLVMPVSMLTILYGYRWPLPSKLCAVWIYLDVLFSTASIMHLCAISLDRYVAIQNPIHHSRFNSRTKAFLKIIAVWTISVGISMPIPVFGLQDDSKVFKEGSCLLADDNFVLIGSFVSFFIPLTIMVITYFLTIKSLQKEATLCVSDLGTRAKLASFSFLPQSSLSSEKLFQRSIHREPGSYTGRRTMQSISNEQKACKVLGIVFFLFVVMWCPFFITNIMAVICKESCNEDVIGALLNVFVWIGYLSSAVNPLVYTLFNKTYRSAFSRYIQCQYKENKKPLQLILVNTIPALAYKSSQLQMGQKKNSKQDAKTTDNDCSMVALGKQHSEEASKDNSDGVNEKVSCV

Row | EC50 [1] [nM] | Emax ([2]; filed as agonist) [%] | Emax ([3]; filed as agonist) [%] | EC50 ([4]; read-out: EC50) [nM] | Emax [3] [%] | Emax [2] [%] | EC50 ([4]; read-out: pEC50 (converted)) [nM] | SMILES
1 | 1550 | 110 | 40 | 912 | – | – | – | Fc1ccc2[nH]c3c(c2c1)CCNC3c1cc2ccccc2s1 (stereo not given)
2 | 403 | 98.4 | 91.4 | 95.2 | – | – | – | Clc1ccc2[nH]c3c(c2c1)CCNC3c1ccccc1Br (stereo not given)
3 | 1320 | 93.7 | 66.8 | 1060 | – | – | – | COc1ccc2cc(C3NCCc4c3[nH]c3ccc(Cl)cc43)ccc2c1 (stereo not given)
4 | 91.2 | 103 | 87.3 | 20.4 | – | – | – | Fc1ccc2[nH]c3c(c2c1)CCNC3C1CCCCC1 (stereo not given)
5 | 23 | 102 | 91.4 | 13.2 | – | – | – | Oc1ccc2[nH]c3c(c2c1)CCNC3c1ccccc1F (stereo not given)
6 | 216 | 101 | 88.4 | 77 | – | – | – | Oc1ccc2[nH]c3c(c2c1)CCNC3c1cc(F)ccc1O (stereo not given)
7 | 898 | – | – | 420 | 32.1 | 38.7 | – | Clc1ccc2[nH]c3c(c2c1)CCNC3c1cncnc1 (stereo not given)
8 | 812 | 91.3 | – | 467 | 31.7 | – | – | Fc1ccc2[nH]c3c(c2c1)CCNC3CCc1ccccc1 (stereo not given)
9 | 177 | 117 | 100 | 44 | – | – | – | Clc1ccc2[nH]c3c(c2c1)CCNC3c1ccc(Cl)s1 (stereo not given)
10 | 74.5 | 107 | 97.9 | 68.6 | – | – | – | Oc1c(Br)cccc1C1NCCc2c1[nH]c1ccc(Cl)cc21 (stereo not given)
11 | 2620 | – | 56.1 | – | – | – | – | Clc1ccc2[nH]c3c(c2c1)CCNC3Cc1ccccc1 (stereo not given)
12 | 58.2 | 104 | 99.9 | 29.8 | – | – | 30.2 | Oc1ccc(C2NCCc3c2[nH]c2ccc(F)cc32)cc1 (stereo not given)
13 | 312 | 95 | – | 1130 | 11.2 | – | – | Cc1ccc(C2NCCc3c2[nH]c2ccc(O)cc32)cc1 (stereo not given)
14 | 1330 | – | 44.4 | – | – | – | – | Fc1ccc2[nH]c3c(c2c1)CCNC3Cc1ccccc1 (stereo not given)
15 | 139 | – | 45.8 | – | – | – | – | Oc1ccc2[nH]c3c(c2c1)CCNC3CCc1ccccc1 (stereo not given)
16 | 724 | 48.6 | – | 602 | 23.7 | – | – | Clc1ccc2[nH]c3c(c2c1)CCNC3c1cccs1 (stereo not given)
17 | 88.5 | 102 | 86.5 | 22.4 | – | – | – | Fc1ccc2[nH]c3c(c2c1)CCNC3c1ccccc1 (stereo not given)
18 | 15.1 | 102 | 96.5 | 24.5 | – | – | – | Clc1ccc2[nH]c3c(c2c1)CCNC3c1ccc2ccccc2c1 (stereo not given)
19 | 239 | 111 | 90.7 | 50.1 | – | – | – | Cc1noc(C)c1C1NCCc2c1[nH]c1ccc(F)cc21 (stereo not given)
20 | 513 | 104 | 84.5 | 191 | – | – | – | Cc1noc(C)c1C1NCCc2c1[nH]c1ccc(Cl)cc21 (stereo not given)
21 | 1420 | – | – | – | 14.3 | – | – | Oc1ccc2[nH]c3c(c2c1)CCNC3c1ccccc1Cl (stereo not given)
22 | 208 | 85.4 | – | 2060 | 39.9 | – | – | Cc1ccc(C2NCCc3c2[nH]c2ccc(F)cc32)cc1 (stereo not given)
23 | 126 | 94.3 | 43.1 | 75.4 | – | – | – | COc1ccccc1C1NCCc2c1[nH]c1ccc(F)cc21 (stereo not given)
24 | 912 | 104 | 62.4 | 447 | – | – | – | Clc1ccc2[nH]c3c(c2c1)CCNC3c1ccc(Br)s1 (stereo not given)
25 | 295 | 98.5 | 59.9 | 95.5 | – | – | – | Clc1ccc2[nH]c3c(c2c1)CCNC3C1CCCCC1 (stereo not given)
26 | 455 | 104 | 85.9 | 194 | – | – | – | Oc1ccc2[nH]c3c(c2c1)CCNC3c1cc(Br)ccc1O (stereo not given)
27 | – | – | – | 1260 | – | 39.4 | – | Fc1ccc2[nH]c3c(c2c1)CCNC3c1nccs1 (stereo not given)
28 | 2510 | – | – | – | 26.3 | – | – | Oc1ccc2[nH]c3c(c2c1)CCNC3c1ccccc1 (stereo not given)

Second part, the molecule before the results:

Row | SMILES | EC50 [1] [nM] | Emax ([2]; filed as agonist) [%] | Emax ([3]; filed as agonist) [%] | EC50 ([4]; read-out: EC50) [nM] | Emax [3] [%] | Emax [2] [%] | EC50 ([4]; read-out: pEC50 (converted)) [nM]
29 | Fc1ncccc1C1NCCc2c1[nH]c1ccc(Cl)cc21 (stereo not given) | 346 | 75.2 | 56.1 | 1060 | – | – | –
30 | Fc1ccc2[nH]c3c(c2c1)CCNC3c1ccccc1Cl (stereo not given) | 278 | 88.1 | – | 872 | 28.1 | – | –
31 | Oc1ccccc1C1NCCc2c1[nH]c1ccc(F)cc21 (stereo not given) | 26 | 100 | 96.2 | 4.3 | – | – | –
32 | NCCc1c[nH]c2ccc(O)cc12 | – | – | 100 | – | – | – | –
33 | CCCC1NCCc2c1[nH]c1ccc(F)cc21 (stereo not given) | > 10000 | – | – | > 10000 | – | – | –
34 | Oc1ccc2[nH]c3c(c2c1)CCNC3c1ccc(Br)cc1O (stereo not given) | 364 | 100 | 67.8 | 173 | – | – | –
35 | Fc1ccc2[nH]c3c(c2c1)CCNC3c1ccccc1Br (stereo not given) | 98 | 75.1 | – | 2100 | 10.5 | – | –
36 | Oc1ccc(C2NCCc3c2[nH]c2ccc(Cl)cc32)cc1 (stereo not given) | 93.8 | 99.4 | 103 | 105 | – | – | –
37 | Fc1ccccc1C1NCCc2c1[nH]c1ccc(Cl)cc21 (stereo not given) | 8000 | – | – | 1160 | 23.2 | 13.9 | –
38 | Clc1ccc2[nH]c3c(c2c1)CCNC3C(c1ccccc1)c1ccccc1 (stereo not given) | 1350 | 106 | 88.1 | 3240 | – | – | 0.324
39 | Fc1ccc2[nH]c3c(c2c1)CCNC3c1ccccc1F (stereo not given) | 302 | 81 | 48.9 | 1010 | – | – | –
40 | Oc1ccc2[nH]c3c(c2c1)CCNC3c1ccccc1O (stereo not given) | – | 103 | – | – | 26.9 | – | –
41 | Clc1ccc2[nH]c3c(c2c1)CCNC3CCc1ccccc1 (stereo not given) | 64 | 98.5 | 101 | 15.8 | – | – | –
42 | Cn1ccnc1C1NCCc2c1[nH]c1ccc(O)cc21 (stereo not given) | 79 | 87.1 | 100 | 97 | – | – | –
43 | Clc1ccc2[nH]c3c(c2c1)CCNC3c1cc2ccccc2s1 (stereo not given) | 151 | 105 | 88 | 39 | – | – | –
44 | Oc1ccc2[nH]c3c(c2c1)CCNC3c1cccs1 (stereo not given) | 346 | 97 | 44.7 | 294 | – | – | –
45 | CCCC1NCCc2c1[nH]c1ccc(Cl)cc21 (stereo not given) | 646 | – | 50.1 | > 10000 | – | – | –
46 | COc1ccc(C2NCCc3c2[nH]c2ccc(O)cc32)c(O)c1 (stereo not given) | 0.5 | 114 | 103 | 0.8 | – | – | –

Row | SMILES | EC50 [1] [nM] | Emax ([2]; filed as agonist) [%] | Emax ([3]; filed as agonist) [%] | EC50 ([4]; read-out: EC50) [nM] | Emax [3] [%] | Emax [2] [%] | EC50 ([4]; read-out: pEC50 (converted)) [nM]
47 | Fc1ccc2[nH]c3c(c2c1)CCNC3c1cccnc1F (stereo not given) | 390 | – | 40.9 | 4030 | – | 30.2 | –
48 | Fc1ccc2[nH]c3c(c2c1)CCNC3c1ccc2ccccc2c1 (stereo not given) | 195 | 103 | 79.1 | 186 | – | – | –
49 | CCC1NCCc2c1[nH]c1ccc(O)cc21 (stereo not given) | 195 | 97.6 | 85.1 | 61 | – | – | –
50 | Clc1ccc2[nH]c3c(c2c1)CCNC3C1CCOCC1 (stereo not given) | 371 | 63.8 | 42.8 | 295 | – | – | –
51 | Oc1cccc(C2NCCc3c2[nH]c2ccc(Cl)cc32)c1 (stereo not given) | 3300 | 67.4 | 49.1 | 688 | – | – | –
52 | Oc1cccc(C2NCCc3c2[nH]c2ccc(O)cc32)c1 (stereo not given) | 223 | 95.4 | 93.4 | 148 | – | – | –
53 | COc1cc(OC)c(C2NCCc3c2[nH]c2ccc(O)cc32)cc1OC (stereo not given) | 3.8 | 109 | 102 | 7.6 | – | – | –
54 | Oc1ccc2[nH]c3c(c2c1)CCNC3C1CCCCC1 (stereo not given) | 281 | – | 74.1 | 959 | – | 28.4 | –
55 | Oc1cccc(C2NCCc3c2[nH]c2ccc(F)cc32)c1 (stereo not given) | 208 | 123 | 83.2 | 130 | – | – | –
56 | Oc1ccc2[nH]c3c(c2c1)CCNC3c1cc(Cl)ccc1O (stereo not given) | 1570 | 97.1 | 47.6 | 754 | – | – | –
57 | Oc1ccccc1C1NCCc2c1[nH]c1ccc(Cl)cc21 (stereo not given) | 51.7 | 103 | 92.7 | 15.3 | – | – | –
58 | Fc1ccc2[nH]c3c(c2c1)CCNC3c1cncnc1 (stereo not given) | – | 101 | 95.1 | – | – | – | –
59 | CCC1NCCc2c1[nH]c1ccc(Cl)cc21 (stereo not given) | 398 | 80.8 | 74.3 | 7940 | – | – | –
60 | Oc1c(Br)cccc1C1NCCc2c1[nH]c1ccc(F)cc21 (stereo not given) | 116 | 109 | 93.1 | 66.5 | – | – | –
61 | CCC1NCCc2c1[nH]c1ccc(F)cc21 (stereo not given) | 597 | 96.2 | 75.4 | 200 | – | – | –
62 | Clc1ccc2[nH]c3c(c2c1)CCNC3c1ccccc1 (stereo not given) | 248 | 98 | 83.9 | 68.9 | – | – | –
63 | COc1ccccc1C1NCCc2c1[nH]c1ccc(O)cc21 (stereo not given) | 269 | – | – | – | 21.5 | – | –
